Test system: lactate production from D-glucose in rat brain postnuclear supernatant fraction
Test: Lactate production from D-glucose in rat brain postnuclear supernatants
Assay type: biochemical
Method: FIG. 2 is a graphic presentation of inhibition of lactate production from D-glucose by rat brain postnuclear supernatant fraction and by synaptosoms incubated with RAP. Lactate production was determined for a 20-min incubation at 37° C. Values (expressed as % of the control rate) are mean±SD of 3-6 determinations. The control value was 8.1±0.9 nmol of lactate produced/min/mg protein, *P<0.05, **P<0.03 and ***P<0.005vs. control values.
Postnuclear supernatant fraction (containing the glycolytic enzymes) was prepared from rat brain according to the method of Lai et al (1984, supra). Rat brain synaptosomes were prepared according to the method of Lai et al (1980, Biochem. Pharmacol., 29:141-146). Lactate generated by these preparations in the presence of D-glucose was measured with lactate dehydrogenase as described by Lai et al (1984, supra), except that the concentrations of sodium phosphate buffer and nicotinamide used in the medium were respectively 5 and 20 mM. (In some cases where there was a carry over of appreciable RAP to the assay mix, ten times the recommended amount of lactate dehydrogenase was used and the effectiveness of the enzyme in converting lactate to pyruvate was checked by addition of lactate standards to the cuvette after the initial reaction was over).

Nc1ncnc2c1ncn2[C@@H]1O[C@H](COP(=O)(O)OP(=O)(O)OC[C@H]2O[C@@H](N3C=CC(CC(=O)C(=O)O)C(C=O)=C3)[C@H](O)[C@@H]2O)[C@@H](O)[C@H]1O (stereo partly drawn) [RAP, 3(-4-(reduced 3-pyridinealdehyde-adeninedinucleotide))-pyruvate]
inhibition of lactate production from glucose in rat brain extracts: strongly inhibited | concentrations at which lactate production is inhibited in a concentration-dependent manner (rat brain postnuclear supernatants, D-glucose): higher than 200 nM | IC50 (rat brain postnuclear supernatants, D-glucose, 20-min incubation at 37° C., true concentration lower since RAP dissociates, read-out: formal "concentration" required to inhibit lactate production by 50%): 1 to 9 µM

Source: patent US4950602A, “Inhibition of lactate production by pyruvate adducts” (Cornell Research Foundation, Inc., priority 1987, dated 1990)
